# Measured values taken from US8088806B2 (Achillion Pharmaceuticals, Inc., priority 2005, dated 2012).
# System: HCV replicon
# Assay: Replicon based assay of HCV replication inhibition (NPT ELISA)
# Type: cell-based, Hepatitis C virus
# Details: Hepatitis C virus, replicon based assay of HCV replication inhibition; Table II; read-out: Activity
# How it was run: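 NPT (neomycin phosphotransferase) content, proportional to replicon replication, quantified by capture ELISA on day four. Before that, replicon-bearing Huh-7 cells in G418-free screening medium were exposed three days at 37° C to compound, typically six doses from 10 to 0.03 micromolar, with equal DMSO across wells.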
row,SMILES,EC50 [µM]
1,"Cc1sc(NC(=O)c2ccccc2)nc1-c1ccc(CC(=O)O)cc1 [compound 345, 2-(4-(2-benzamido-5-methylthiazol-4-yl)phenyl)acetic acid]",> 10
2,"COc1ccc(CNc2nc(-c3ccc(CC(=O)O)cc3)c(C)s2)cc1 [compound 346, 2-(4-(2-(4-methoxybenzylamino)-5-methylthiazol-4-yl)phenyl)acetic acid]",> 10
3,"CCOC(=O)c1ccc(Nc2nc(-c3ccc(F)cc3)c(C)s2)cc1 [compound 347, ethyl 4-(4-(4-fluorophenyl)-5-mthylthiazol-2-ylamino)benzoate]",> 10
4,"Cc1sc(Nc2cccc(C(F)(F)F)c2)nc1-c1ccc(F)cc1 [compound 348, 4-(4-fluorophenyl)-5-methyl-N-(3-(trifluoromethyl)phenyl)thia-zol-2-amine]",1 to 10
5,"Cc1sc(Nc2cccnc2)nc1-c1ccc(F)cc1 [compound 349, N-(4-(4-fluorophenyl)-5-methylthiazol-2-yl)pyridin-3-amine]",> 10
6,"Cc1sc(NC(=O)c2ccccc2)nc1-c1ccc(F)cc1 [compound 350, N-(4-(4-fluorophenyl)-5-methylthiazol-2-yl)benzamide]",> 10
7,"COc1ccc(CNc2nc(-c3ccc(F)cc3)c(C)s2)cc1 [compound 351, N-(4-methoxybenzyl)-4-(4-fluorophenyl)-5-methylthiazol-2-amine]",> 10
8,"CCCCCCCOc1ccc(Nc2nc(-c3ccccc3)c(-c3ccccc3)s2)cc1 [compound 352, N-(4-(heptyloxy)phenyl)-4,5-diphenylthiazol-2-amine]",> 10
9,"CCCCCCCCOc1ccc(Nc2nc(-c3ccc(OC)cc3)c(-c3ccc(OC)cc3)s2)cc1 [compound 353, 4,5-bis(4-methoxyphenyl)-N-(4-(octyloxy)phenyl)thiazol-2-amine]",1 to 10
10,"CCCCCCCOc1ccc(Nc2nc(-c3ccc(OC)cc3)c(-c3ccc(OC)cc3)s2)cc1 [compound 355, N-(4-(heptyloxy)phenyl)-4,5-bis(4-methoxyphenyl)thiazol-2-amine]",> 10
11,"COc1ccc(-c2nc(Nc3ccc(F)cc3)sc2-c2ccc(OC)cc2)cc1 [compound 356, N-(4-fluorophenyl)-4,5-bis(4-methoxyphenyl)thiazol-2-amine]",1 to 10
12,"COc1ccc(-c2nc(Nc3cc(OC)ccc3OC)sc2-c2ccc(OC)cc2)cc1 [compound 357, N-(2,5-dimthoxyphenyl)-4,5-bis(4-methoxyphenyl)thiazol-2-amine]",> 10
13,"CCCCCOc1ccc(Nc2nc(-c3cccs3)cs2)cc1C(F)(F)F [compound 358, N-(4-(pentyloxy)-3-(trifluoromethyl)phenyl)-4-(thiophen-2-yl)thiazol-2-amine]",< 1
14,"CCCCCCCOc1ccc(Nc2nc(-c3cccs3)cs2)cc1 [compound 359, N-(4-(heptyloxy)phenyl)-4-(thiophen-2-yl)thiazol-2-amine]",< 1
15,"CCCCCCCCOc1ccc(Nc2nc(-c3cccs3)cs2)cc1 [compound 360, N-(4-(octyloxy)phenyl)-4-(thiophen-2-yl)thiazol-2-amine]",< 1
16,"CCCCCOc1ccc(Nc2nc(-c3cc4cnccc4o3)cs2)cc1C(F)(F)F [compound 361, 4-(furo[3,2-c]pyridin-2-yl)-N-(4-(pentyloxy)-3-(trifluoromethyl)phenyl)thia-zol-2-amine]",< 1
17,"CCCCCCCOc1ccc(Nc2nc(-c3cc4cnccc4o3)cs2)cc1 [compound 362, 4-(furo[3,2-c]pyridin-2-yl)-N-(4-(heptyloxy)phenyl)thiazol-2-amine]",1 to 10
18,"c1ccc(Oc2cccc(Nc3nc(-c4cc5cnccc5o4)cs3)c2)cc1 [compound 363, 4-(furo[3,2-c]pyridin-2-yl)-N-(3-phenoxyphenyl)thiazol-2-amine]",> 10
19,"CCCCCOc1ccc(Nc2nc(-c3ccncc3)cs2)cc1C(F)(F)F [compound 364, N-(4-(pentyloxy)-3-(trifluoromethyl)phenyl)-4-(pyridin-4-yl)thiazol-2-amine]",< 1
20,"CCCCCCCOc1ccc(Nc2nc(-c3ccncc3)cs2)cc1 [compound 365, N-(4-(heptyloxy)phenyl)-4-(pyridin-4-yl)thiazol-2-amine]",< 1
21,"c1ccc(Oc2cccc(Nc3nc(-c4ccncc4)cs3)c2)cc1 [compound 366, N-(3-phenoxyphenyl)-4-(pyridin-4-yl)thiazol-2-amine]",< 1
22,"CCCCCOc1ccc(Nc2nc(C3(C(=O)OCC)CC3)cs2)cc1C(F)(F)F [compound 367, ethyl 1-(2-(4-(pentyloxy)-3-(trifluoromethyl)pheenyl-amino)thiazol-4-yl)cyclopropanecarboxylate]",> 10
23,"CCCCCOc1ccc(Nc2nc(N3CCCC3C(=O)O)cs2)cc1C(F)(F)F (centres unmarked) [compound 368, 1-(2-(4-(pentyloxy)-3-(trifluoromethyl)phenyl-amino)thiazol-4-yl)pyrrolidine-2-carboxylic acid]",1 to 10
24,"CCCCCCCOc1ccc(Nc2nc(-c3ccc(C)nc3)cs2)cc1 [compound 369, N-(4-(heptyloxy)phenyl)-4-(6-methylpyridin-3-yl)thiazol-2-amine]",< 1

row,SMILES,EC50 [µM]
1,"CCCCCCCCOc1ccc(Nc2nc(-c3ccc(C)nc3)cs2)cc1 [compound 370, 4-(6-methylpyridin-3-yl)-N-(4-(octyloxy)phenyl)thiazol-2-amine]",< 1
2,"CCCCCOc1ccc(Nc2nc(-c3ccccc3O)cs2)cc1C(F)(F)F [compound 371, 2-(2-(4-(pentyloxy)-3-(trifluoromeethyl)phenyl-amino)thiazol-4-yl)phenol]",1 to 10
3,"CCCCCCCOc1ccc(Nc2nc(-c3ccccc3O)cs2)cc1 [compound 372, 2-(2-(4-(heptyloxy)phenylamino)thia-zol-4-yl)phenol]",< 1
4,"CCCCCCCCOc1ccc(Nc2nc(-c3ccccc3O)cs2)cc1 [compound 373, 2-(2-(4-(octyloxy)phenylamino)thia-zol-4-yl)phenol]",< 1
5,"CCCCCOc1ccc(Nc2nc(-c3ccccc3OC)cs2)cc1C(F)(F)F [compound 374, 4-(2-methoxyphenyl)-N-(4-(pentyloxy)-3-(trifluoromethyl)phenyl)thia-zol-2-amine]",1 to 10
6,"CCCCCCCOc1ccc(Nc2nc(-c3ccccc3OC)cs2)cc1 [compound 375, N-(4-(heptyloxy)phenyl)-4-(2-methoxyphenyl)thiazol-2-amine]",< 1
7,"CCCCCCCCOc1ccc(Nc2nc(-c3ccccc3OC)cs2)cc1 [compound 376, 4-(2-methoxyphenyl)-N-(4-(octyloxy)phenyl)thiazol-2-amine]",< 1
8,"CCCCCOc1ccc(Nc2nc(-c3ccc(O)nc3)cs2)cc1C(F)(F)F [compound 377, 5-(2-(4-(pentyloxy)-3-(trifluoromethyl)phenyl-amino)thiazol-4-yl)pyridin-2-ol]",< 1
9,"CCCCCOc1ccc(Nc2nc(-c3ccc(OC)nc3)cs2)cc1C(F)(F)F [compound 378, 4-(6-methoxypyridin-3-yl)-N-(4-(pentyloxy)-3-(trifluoromethyl)phenyl)thia-zol-2-amine]",< 1
10,"CCCCCN(C)c1ccc(Nc2nc(-c3cccnc3)cs2)cc1C(F)(F)F [compound 379, N^1-methyl-N^1-pentyl-N^4-(4-(pyridin-3-yl)thiazol-2-yl)-2-(trifluoromethyl)benzene-1,4-diamine]",< 1
11,"CCCCCCCCOc1ccc(Nc2nc(-c3ccc(Br)cc3)cs2)cc1 [compound 382, 4-(4-bromophenyl)-N-(4-(octyloxy)phenyl)thiazol-2-amine]",< 1
12,"CCCCCCCCOc1ccc(Nc2nc(-c3ccc4[nH]c(=O)oc4c3)cs2)cc1 [compound 383, 6-(2-(4-(octyloxy)phenylamino)thia-zol-4-yl)benzo[d]oxazol-2(3H)-one]",< 1
13,"CCCCCCCCOc1ccc(Nc2nc(-c3cccc(C(=O)O)c3)cs2)cc1 [compound 384, 3-(2-(4-(octyloxy)phenylamino)thia-zol-4-yl)benzoic acid]",< 1
14,"CCCCCCCCOc1ccc(Nc2nc(-c3ccccn3)cs2)cc1 [compound 385, N-(4-(octyloxy)phenyl)-4-(pyridin-2-yl)thiazol-2-amine]",< 1
15,"CCCCCCCCOc1ccc(Nc2nc(-c3c[nH]c4ccccc34)cs2)cc1 [compound 386, 4-(1H-indol-3-yl)-N-(4-(octyloxy)pheenyl)thiazol-2-amine]",< 1
16,"CCCCCCCCOc1ccc(Nc2nc(-c3ccc(-c4ccccn4)s3)cs2)cc1 [compound 387, N-(4-(octyloxy)phenyl)-4-(5-(pyridin-2-yl)thiophen-2-yl)thiazol-2-amine]",< 1
17,"CCCCCCCCOc1ccc(Nc2nc(-c3nc4ccccc4s3)cs2)cc1 [compound 388, 4-(benzo[d]thiazol-2-yl)-N-(4-(octyloxy)phenyl)thiazol-2-amine]",< 1
18,CCCCCCCCOc1ccc(Nc2nc(-c3cc4ccccc4o3)cs2)cc1 [compound 389],< 1
19,"CCCCCCCCOc1ccc(Nc2nc(-c3sc(-c4cnccn4)nc3C)cs2)cc1 [compound 390, 4-(4-methyl-2-(pyrazin-2-yl)thiazol-5-yl)-N-(4-(octyloxy)phenyl)thiazol-2-amine]",< 1
20,"CCCCCCCCOc1ccc(Nc2nc(CC)cs2)cc1 [compound 391, 4-ethyl-N-(4-(octyloxy)phenyl)thiazol-2-amine]",< 1
21,"CCCCCCCOc1ccc(Nc2nc(-c3ccc(O)c(O)c3)cs2)cc1 [compound 392, 4-(2-(4-(heptyloxy)phenylamino)thia-zol-4-yl)benzene-1,2-diol]",< 1
22,"CCCCCCCOc1ccc(Nc2nc(-c3ccc(Cl)s3)cs2)cc1 [compound 393, 4-(5-chlorothiophen-2-yl)-N-(4-(heptyloxy)phenyl)thiazol-2-amine]",< 1
23,"CCCCCCCOc1ccc(Nc2nc(-c3ccc(Br)cc3)cs2)cc1 [compound 394, 4-(4-bromophenyl)-N-(4-(heptyloxy)phenyl)thiazol-2-amine]",< 1
